Columns and labels:
[1] = molecular target: T1, Ataxin-3 (Homo sapiens, UniProt P54252); assay: Ataxin-3 activity assay, Ubiquitin-AMC substrate; assay type: biochemical; details: n = 2
T1 construct: purchased BPS 80399
Method: (§1) IC50 measurements were conducted at Reaction Biology Corporation, Malvern, PA, USA, with two replications using 10 concentrations starting at 200 μM with three-fold dilution. Curve fits were performed where the enzyme activities at the highest concentration of compounds were less than 65%. UCHL1 II was used as a control inhibitor. The procedure was performed analogous to the fluorogenic SENP2 assay described in 3.3.2. using the Ataxin-3 enzyme (BPS Cat# 80399) and Ubiquitin-AMC substrate (Enzo Cat# BML-SE211-0025). The final reaction conditions contained 500 nM Ataxin-3 and 100 nM Ubiquitin-AMC.

[2] = molecular target: T2, UCHL1 (Homo sapiens, UniProt P09936); assay: UCHL1 activity assay, Ubiquitin-AMC substrate; assay type: biochemical; details: n = 2
T2 construct: purchased SignalChem U22-30H
T2 sequence (P09936 1-223): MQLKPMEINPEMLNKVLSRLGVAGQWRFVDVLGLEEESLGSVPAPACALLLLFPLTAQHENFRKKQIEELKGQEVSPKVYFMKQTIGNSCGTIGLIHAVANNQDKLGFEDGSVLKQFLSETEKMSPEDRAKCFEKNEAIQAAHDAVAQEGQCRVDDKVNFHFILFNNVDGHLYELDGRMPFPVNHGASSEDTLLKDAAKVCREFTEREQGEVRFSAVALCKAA
Method: as §1, with “UCHL1” for “Ataxin-3”, “(SignalChem” for “(BPS”, “U22-30H)” for “80399)”, “0.2” for “500”

[3] = molecular target: T3, SENP2 (Homo sapiens, UniProt Q9HC62); assay: Fluorogenic SENP2 assay, SUMO1-AMC substrate; assay type: biochemical; details: n = 2
T3 construct: Human recombinant catalytic domain expressed in E. coli; purchased Enzo BML-UW9765; host or cells: E. coli
T3 sequence (Q9HC62 396-560 limits assumed): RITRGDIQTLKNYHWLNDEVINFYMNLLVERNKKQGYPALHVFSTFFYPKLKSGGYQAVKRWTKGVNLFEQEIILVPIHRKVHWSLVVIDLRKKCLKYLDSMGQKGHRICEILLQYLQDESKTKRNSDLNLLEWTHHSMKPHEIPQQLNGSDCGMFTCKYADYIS
Method: The IC50 measurements were conducted at Reaction Biology Corporation, Malvern, PA, USA, with two replications using 10 concentrations starting at 200 μM with a three-fold dilution. Curve fits were performed where the enzyme activities at the highest concentration of compounds were less than 65%. UCH-L3 I was used as a control inhibitor. To SENP2 (Enzo Cat# BML-UW9765, Human recombinant catalytic domain expressed in E. coli.) in reaction buffer (50 mM HEPES, 150 mM NaCl, 0.5 mM EDTA, 1 mM DTT, pH 7.5, 0.01% CHAPS) was delivered the compound stock solution by acoustic technology (Echo550; nanoliter range) and subsequently incubated for 15 min at ambient temperature. The substrate SUMO1-AMC (R&D Systems Cat# UL-551-050, Lot# 07613314A, Fluorescence labeled full-length SUMO1 protein) was delivered to the well-plate to initiate the reaction. The enzyme activities were monitored (Ex/Em = 355/460 nm) as a time-course measurement of the increase in fluorescence signal from SUMO1-AMC for 90 min at ambient temperature. The data were analyzed by taking the slope (signal/time) of linear portion of measurement. The slope was calculated using Excel and the curve fits were performed using GraphPad Prism7 with a four-parameter least-squares fit. The final reaction conditions contained 0.015 nM SENP2 and 300 nM SUMO1/2 or 3-AMC.

[4] = molecular target: T4, SENP1 (Homo sapiens, UniProt Q9P0U3); assay: Fluorogenic SENP1 assay, SUMO1-AMC substrate; assay type: biochemical; details: for IC50: SUMO1-AMC 300 nM, 0.02 nM SENP1, interval in parentheses, read-out: IC50 SENP1
T4 construct: Human recombinant, His6-SENP1 Catalytic Domain; His6 (N); purchased Boston Biochem (Bio-Techne AG) E-700
T4 sequence (Q9P0U3 450-613 limits assumed): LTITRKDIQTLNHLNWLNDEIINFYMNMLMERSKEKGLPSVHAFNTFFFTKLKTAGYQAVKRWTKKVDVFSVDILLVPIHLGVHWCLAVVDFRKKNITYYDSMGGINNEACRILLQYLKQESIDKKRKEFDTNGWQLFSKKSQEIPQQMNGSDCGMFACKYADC
Method: Human recombinant, His6-SENP1 Catalytic Domain (Boston Biochem Cat# E-700, Bio-Techne AG, Zug, Switzerland) was prepared in reaction buffer (50 mM HEPES, 150 mM NaCl, 0.5 mM EDTA, 1 mM DTT, pH 7.5, 0.01% CHAPS). To this solution, a 20 mM or 50 mM inhibitor stock solution in DMSO was added and the mixture was incubated for 15 min at ambient temperature. […] The slope was calculated using Excel and the curve fits were performed using GraphPad Prism7 with a four-parameter least-squares fit. The final reaction conditions contained 0.02 nM SENP1 and 300 nM SUMO1/2 or 3-AMC).

[5] = molecular target: T4, SENP1; assay: Fluorogenic SENP1 assay, SUMO3-AMC substrate; assay type: biochemical; details: n = 2
Method: (§2) Human recombinant, His6-SENP1 Catalytic Domain (Boston Biochem Cat# E-700, Bio-Techne AG, Zug, Switzerland) was prepared in reaction buffer (50 mM HEPES, 150 mM NaCl, 0.5 mM EDTA, 1 mM DTT, pH 7.5, 0.01% CHAPS). To this solution, a 20 mM or 50 mM inhibitor stock solution in DMSO was added and the mixture was incubated for 15 min at ambient temperature. […] The data were analyzed by taking the slope (signal/time) of the linear portion of measurement. The slope was calculated using Excel and the curve fits were performed using GraphPad Prism7 with a four-parameter least-squares fit. The final reaction conditions contained 0.02 nM SENP1 and 300 nM SUMO1/2 or 3-AMC).

[6] = molecular target: T4, SENP1; assay: Fluorogenic SENP1 assay, SUMO2-AMC substrate; assay type: biochemical; details: n = 2
Method: as §2

[7] = molecular target: T4, SENP1; assay: Photo crosslinking experiments with SENP1; assay type: binding; details: probe 200 µM, SENP1 10 µM, UV 30 min
Method: A buffer exchange of the commercially available 6 × His-SENP1 Protein (Boston Biochem Cat# E-700) to a 50 mM HEPES, 150 mM NaCl; 0.5 mM EDTA, 1 mM DTT, pH 7.5 was performed. A total of 200 μM of the photo affinity probe 56 with or without competitor molecule 11 (400 μM) was incubated in 10 uM SENP1 for 30 min at 0 °C. Subsequently, the mixtures were irradiated in a Proma UV exposure unit equipped with four 8 Watt lamps (Hitachi FL8BL-8, ~350 nm) for 30 min at 0 °C. Then, 50 µL of the crosslinked proteins were mixed with freshly prepared click mix solution (50 μL; 1 mM CuSO4, 1 mM TCEP, 100 uM THPTA from a 5 mM DMSO stock, dissolved in Milli-Q Water) and a 10 mM stock solution of azide fluor 545 (1 μL) and incubated at 0 °C for 14 h. […] Protein samples for SDS-PAGE were first prepared in 1 × Laemmli sample buffer (diluted from 4 × Laemmli sample buffer (ROTI®Load), and subsequently denatured at 100 °C for 15 min. After SDS-PAGE gel electrophoresis separation, the fluorescence was visualized (Ex. 520 nm, Em. 575 nm) on the SDS PAGE gel using ImageQuant^TM 4000 LAS (GE Healthcare, Chicago, IL, USA). Secondly, the gels were stained with Bio-Safe Coomassie Brilliant Blue G-250 (BioRad) for 60 min. De-staining was performed with 40% (v/v) methanol, 10% (v/v) glacial acetic acid, 50% (v/v) Milli-Q water until protein bands became visible.

T1 sequence (P54252 whole entry): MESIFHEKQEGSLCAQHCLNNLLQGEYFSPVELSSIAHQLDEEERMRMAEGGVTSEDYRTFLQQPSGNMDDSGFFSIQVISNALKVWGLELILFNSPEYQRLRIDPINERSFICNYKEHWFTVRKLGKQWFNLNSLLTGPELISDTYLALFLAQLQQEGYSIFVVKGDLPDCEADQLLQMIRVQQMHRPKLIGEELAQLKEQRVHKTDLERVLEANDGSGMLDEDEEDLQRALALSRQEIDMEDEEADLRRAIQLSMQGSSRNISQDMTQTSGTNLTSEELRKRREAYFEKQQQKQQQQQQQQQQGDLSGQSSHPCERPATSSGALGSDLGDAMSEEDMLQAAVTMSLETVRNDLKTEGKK

| SMILES | melting point | IC50 [4] | also measured |
| --- | --- | --- | --- |
| O=C(COC(=O)c1ccc(NC(=O)c2cccc(OCc3ccccc3)c2)cc1)c1ccc(Cl)cc1 [Compound 7, reference compound] | – | – | IC50 [1]: > 100 µM; IC50 [2]: 64 µM; IC50 [3]: 9.3 µM |
| O=C(Cn1cc(Cc2ccccc2)nn1)N1c2ccccc2NC(=O)C12CCCC2 [Compound 46, 1′-[2-(4-Benzyl-1H-1,2,3-triazol-1-yl)acetyl]-3′,4′-dihydro-1′H-spiro[cyclopentane-1,2′-quinoxalin]-3′-one] | 203 °C (dec.) | 38 µM | – |
| O=C(O)c1cccc(-c2cn(CC(=O)N3c4ccccc4NC(=O)C34CCCC4)nn2)c1 [Compound 47, 3-[1-(2-Oxo-2-{3′-oxo-3′,4′-dihydro-1′H-spiro[cyclopentane-1,2′-quinoxalin]-1′-yl}ethyl)-1H-1,2,3-triazol-4-yl]benzoic acid] | 272 °C (dec.) | 29 µM | – |
| COC(=O)c1ccc(-c2cn(CC(=O)N3c4ccccc4NC(=O)C34CCCC4)nn2)cc1 [Compound 48, Methyl 4-[1-(2-oxo-2-{3′-oxo-3′,4′-dihydro-1′H-spiro[cyclopentane-1,2′-quinoxalin]-1′-yl}ethyl)-1H-1,2,3-triazol-4-yl]benzoate] | 263 °C (dec.) | 7.5 µM | – |
| COc1ccc(-c2cn(CC(=O)N3c4ccccc4NC(=O)C34CCCC4)nn2)cc1 [Compound 49, 1′-{2-[4-(4-Methoxyphenyl)-1H-1,2,3-triazol-1-yl]acetyl}-3′,4′-dihydro-1′H-spiro[cyclopentane-1,2′-quinoxalin]-3′-one] | 249 °C (dec.) | 13 µM | – |
| O=C(Cn1cc(-c2ccccn2)nn1)N1c2ccccc2NC(=O)C12CCCC2 [Compound 50, 1′-{2-[4-(Pyridin-2-yl)-1H-1,2,3-triazol-1-yl]acetyl}-3′,4′-dihydro-1′H-spiro[cyclopentane-1,2′-quinoxalin]-3′-one] | 218 °C (dec.) | > 200 µM | SENP1 inhibition in words ([4]; at 200 µM): only slight inhibition |
| O=C(O)Cc1cn(CC(=O)N2c3ccccc3NC(=O)C23CCCC3)nn1 [Compound 52, 2-[1-(2-Oxo-2-{3′-oxo-3′,4′-dihydro-1′H-spiro[cyclopentane-1,2′-quinoxalin]-1′-yl}ethyl)-1H-1,2,3-triazol-4-yl]acetic acid] | 230 °C (dec.) | > 100 µM | – |
| O=C(Cn1nnnc1-c1ccccc1)N1c2ccccc2NC(=O)C12CCCC2 [Compound 54, 1′-[2-(5-Phenyl-1H-1,2,3,4-tetrazol-1-yl)acetyl]-3′,4′-dihydro-1′H-spiro[cyclopentane-1,2′-quinoxalin]-3′-one] | 197 to 202 °C (dec.) | 50 µM | – |
| O=C(Cn1nnc(-c2ccccc2)n1)N1c2cscc2NC(=O)C12CCCC2 [Compound 55, 1′-[2-(5-Phenyl-2H-1,2,3,4-tetrazol-2-yl)acetyl]-3′,4′-dihydro-1′H-spiro[cyclopentane-1,2′-thieno [3,4-b]pyrazin]-3′-one] | 231 to 233 °C | 10 µM | IC50 [5]: 23 µM; IC50 [1]: > 100 µM; IC50 [6]: 18 µM; IC50 [2]: 132 µM; IC50 [3]: 5.8 µM |
| C#CCCC1(CCC(=O)N2c3ccccc3NC(=O)C23CCCC3)N=N1 [Compound 56, 1′-{3-[3-(But-3-yn-1-yl)-3H-diazirin-3-yl]propanoyl}-3′,4′-dihydro-1′H-spiro[cyclopentane-1,2′-quinoxalin]-3′-one] | – | 24 µM | covalent labelling of SENP1 by photo probe (TAMRA-azide fluorescence) [7]: fluorescent band was visible |
| CCCCCCCC(=O)N1c2ccccc2NC(=O)C12CCCC2 [Compound 57, 1′-Octanoyl-3′,4′-dihydro-1′H-spiro[cyclopentane-1,2′-quinoxalin]-3′-one] | 67 to 70 °C | 6.6 µM | – |
